Legend:
[1] = Phase 1 MAD study, pharmacokinetics, 40 mg daily over 10 days; type: in vivo, human
From the text: This Phase 1, first-in-human, double-blind, randomized, placebo-controlled study will evaluate the safety of Compound 1 in healthy volunteers as well as the relationship between exposure and pharmacodynamic (PD) parameters, including ACTH-stimulated and endogenous cortisol secretion measured in blood, saliva, and urine. Results will be used to inform endpoints and other parameters in future later studies in patients with Cushing's disease (CD) or other diseases of excess adrenocorticotropic hormone (ACTH), including Congenital Adrenal Hyperplasia (CAH) and Ectopic ACTH Syndrome (EAS).
MAD/Part 2: multiple ascending dose, randomized, placebo-controlled, double-blind; 2 planned and up to 4 total cohorts (n=36). In each cohort, 6 subjects will receive Compound 1, 3 subjects will receive the placebo. The doses will not exceed the doses in the SAD.
Pharmacokinetic results for Day 1 and Day 10 from the MAD study using a 40 mg daily dose of Compound 1 over 10 days are shown in FIG. 12. Data shown are mean±SEM. […] The mean half-life was ˜30 hours.

[2] = test system: corticosterone and adrenal gland hypertrophy; test: Continuous pump-administration of ACTH(1-24) in male rats, 7 days of daily oral dosing; type: in vivo, rat
Method: Exogenous ACTH(1-24) (100 μg/kg/day) was administered to male rats via subcutaneously implanted osmotic pumps. The ability of repeated daily oral administration of Compound 1 to suppress corticosterone over 7 days was evaluated.

[3] = test system: ACTH-stimulated corticosterone secretion; test: Single oral dose ACTH challenge test in rats; type: in vivo, rat; details: for suppression of corticosterone: 1 μg/kg IV ACTH(1-24), vs vehicle
Method: (§1) The pharmacodynamic (PD) effects of Compound 1 were examined in rat by evaluating suppression of the corticosterone (cortisol in humans) response induced by administration of ACTH.
(§2) The ability of a single oral dose of Compound 1 to suppress corticosterone over 2 hours in response to an ACTH challenge test was assessed in male and female rats. Acute, IV administration of 1 μg/kg ACTH(1-24) induced a robust rise in plasma corticosterone levels compared to baseline in male and female rats.

[4] = Single oral dose ACTH challenge test in rats; type: in vivo, rat; details: rat, in vivo, male rats, at minimum effective dose 3 mg/kg oral
Method: as §1, §2

[5] = test system: plasma corticosterone in mice with ACTH-secreting AtT-20 cell tumors; test: ACTH-secreting AtT-20 mouse pituitary cell tumor model, 14 days of daily oral dosing; type: in vivo; details: for suppression of plasma corticosterone: 2 hours after last dose, vs vehicle
Method: The ability of 14 days of daily oral administration of Compound 1 to suppress corticosterone in a mouse model of ACTH excess was evaluated.
Briefly, female Balb/c nude mice were subcutaneously implanted with AtT-20 corticotroph tumor cells in the rear flank (3 million cells/injection/animal) on Day 0. The no-tumor (NT) control group was injected with media only. When tumors became palpable on Day 21, mice were assigned to groups randomized for body weight, and 0, 15, 30 or 100 mg/kg/day of Compound 1. Compound 1 was orally administered for 14 days (Day 21 to Day 34).

sodium channel (site 2) = test: SafetyScreen panel: sodium channel site 2; type: binding; details: 10 μM
Method: Compound 1 was tested at Eurofins Panlabs Discovery Services Taiwan, Ltd. for evaluation in their SafetyScreen™ panel of assays. This included selectivity assays at 87 targets including G-protein coupled receptors, nuclear receptors, other cell surface receptors, ion channels, enzymes, and transporters.

MCSR = biological target: T1, MCSR (Homo sapiens, UniProt P33032); test: Commercially available MCSR membrane binding assay; details: greater than highest concentration tested
T1 construct: purchased
T1 sequence (P33032 whole entry): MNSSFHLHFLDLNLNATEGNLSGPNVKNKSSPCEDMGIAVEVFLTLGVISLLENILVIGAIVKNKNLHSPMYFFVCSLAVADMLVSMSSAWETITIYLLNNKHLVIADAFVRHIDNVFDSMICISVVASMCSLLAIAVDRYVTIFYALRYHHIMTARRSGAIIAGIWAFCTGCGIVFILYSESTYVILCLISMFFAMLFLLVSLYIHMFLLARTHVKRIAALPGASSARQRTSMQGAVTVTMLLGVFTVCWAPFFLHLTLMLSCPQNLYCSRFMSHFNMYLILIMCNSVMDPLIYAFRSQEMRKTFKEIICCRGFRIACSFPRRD
Method: (§3) The selectivity over other human MCR subtypes was evaluated using commercially available MC1R, MC3R, MC4R, and MCSR membrane binding assays. The half maximal inhibitory concentration in the binding assays (IC50) were determined to be greater than the highest concentration tested, or >10,000 nM, >1000 nM, >10,000 nM and >1000 nM for MC1R, MC3R, MC4R and MCSR, respectively. Compound 1 is >2900-fold selective for MC2R versus the other human MCRs.

[6] = test system: ACTH-stimulated corticosterone; test: Single oral dose with repeated ACTH(1-24) challenges in rats; type: in vivo, rat; details: for suppression of ACTH-stimulated corticosterone: vs vehicle
Method: The ability of a single dose of Compound 1 to suppress corticosterone after repeated ACTH(1-24) (1 μg/kg) challenges was evaluated to determine the reproducibility of the ACTH-stimulated corticosterone response and the amount of time required to restore the corticosterone response to vehicle levels.
Compound 1 suppressed ACTH-stimulated corticosterone at 1 hour (44% and 88% with 3 and 30 mg/kg, respectively) and 4 hours (36% and 84% with 3 and 30 mg/kg, respectively) post-oral administration compared to vehicle treatment.

5-HT1B receptor = 5-HT1B receptor (Homo sapiens, UniProt P28222); test: 5-HT1B functional dose response, agonist and antagonist modes; type: biochemical
Sequence of 5-HT1B receptor (P28222 whole entry): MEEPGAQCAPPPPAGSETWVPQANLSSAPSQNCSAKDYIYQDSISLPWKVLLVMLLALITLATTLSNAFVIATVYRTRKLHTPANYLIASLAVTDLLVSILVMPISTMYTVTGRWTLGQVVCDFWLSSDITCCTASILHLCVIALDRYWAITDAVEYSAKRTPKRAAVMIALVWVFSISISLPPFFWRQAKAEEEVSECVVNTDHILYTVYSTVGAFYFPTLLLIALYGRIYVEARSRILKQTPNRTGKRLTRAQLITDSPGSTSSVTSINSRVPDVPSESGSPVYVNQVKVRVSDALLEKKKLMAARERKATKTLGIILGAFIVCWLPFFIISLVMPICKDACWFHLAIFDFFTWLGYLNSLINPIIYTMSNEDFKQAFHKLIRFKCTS
From the text: The selectivity of Compound 1 for hMC2R over 5-HT1B is >2200-fold.

MC3R = biological target: T2, MC3R (Homo sapiens, UniProt P41968); test: Commercially available MC3R membrane binding assay; details: greater than highest concentration tested
T2 construct: purchased
T2 sequence (P41968 whole entry): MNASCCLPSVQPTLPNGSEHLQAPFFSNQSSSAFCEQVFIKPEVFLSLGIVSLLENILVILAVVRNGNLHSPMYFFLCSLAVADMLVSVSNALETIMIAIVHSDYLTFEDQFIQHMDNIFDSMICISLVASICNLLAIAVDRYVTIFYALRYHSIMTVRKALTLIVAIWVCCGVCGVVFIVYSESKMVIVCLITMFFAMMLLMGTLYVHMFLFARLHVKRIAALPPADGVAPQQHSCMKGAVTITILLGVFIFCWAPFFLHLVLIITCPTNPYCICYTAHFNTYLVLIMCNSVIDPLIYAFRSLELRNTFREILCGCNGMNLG
Method: as §3

MC1R = biological target: T3, MC1R (Homo sapiens, UniProt Q01726); test: Commercially available MC1R membrane binding assay; details: greater than highest concentration tested
T3 construct: purchased
T3 sequence (Q01726 whole entry): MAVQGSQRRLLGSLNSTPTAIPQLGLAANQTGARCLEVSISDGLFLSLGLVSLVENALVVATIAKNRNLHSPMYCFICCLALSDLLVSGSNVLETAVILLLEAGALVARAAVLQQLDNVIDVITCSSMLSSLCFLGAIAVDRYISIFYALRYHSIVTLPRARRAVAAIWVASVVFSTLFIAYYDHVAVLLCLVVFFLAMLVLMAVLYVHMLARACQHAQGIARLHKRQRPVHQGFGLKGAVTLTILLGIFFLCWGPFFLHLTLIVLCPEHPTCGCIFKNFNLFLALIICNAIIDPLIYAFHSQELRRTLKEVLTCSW
Method: as §3

MC4R = biological target: T4, MC4R (Homo sapiens, UniProt P32245); test: Commercially available MC4R membrane binding assay; details: greater than highest concentration tested
T4 construct: purchased
T4 sequence (P32245 whole entry): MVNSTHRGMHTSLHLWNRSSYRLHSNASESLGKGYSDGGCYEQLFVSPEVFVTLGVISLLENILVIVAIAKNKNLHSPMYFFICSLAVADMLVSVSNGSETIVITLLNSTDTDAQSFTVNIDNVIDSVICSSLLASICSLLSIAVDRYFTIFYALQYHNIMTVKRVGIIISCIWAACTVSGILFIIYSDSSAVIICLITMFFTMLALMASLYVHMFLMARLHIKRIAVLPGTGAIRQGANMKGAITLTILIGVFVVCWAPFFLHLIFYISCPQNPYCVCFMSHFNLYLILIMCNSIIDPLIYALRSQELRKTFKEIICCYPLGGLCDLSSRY
Method: as §3

[7] = daily oral dosing over the course of the experiment

## CCOc1ccccc1-c1ccc(N2CCN(C(=O)C3(C(F)(F)F)CCC3)C[C@H]2CC)c(C(=O)N[C@@H]2CN3CCC2CC3)n1 [Compound 1, 6-(2-ethoxyphenyl)-3-((R)-2-ethyl-4-(1-(trifluoromethyl)cyclobutane-1-carbonyl)piperazin-1-yl)-N—((S)-quinuclidin-3-yl)picolinamide]
[1]; 40 mg daily over 10 days
  accumulation with chronic dosing, higher than projected from SAD study results: approximately 2.4 fold
[1]; 40 mg, Day 1
  Day 1 PK profile and exposures: comparable to the 40 mg single dose from the SAD study
[1]; human, in vivo, oral, 40 mg daily over 10 days
  half-life: ~1800 min
[2]; 10 and 30 mg/kg/day vs vehicle
  adrenal gland hypertrophy (adrenal gland weight and adrenal cortical area): ameliorated adrenal gland hypertrophy
[2]; ≥10 mg/kg/day, 1 hour post-dose on Day 1 and Day 7
  corticosterone: dose-dependently suppressed
[3]; female rats, 1 mg/kg oral
  suppression of corticosterone: 51%
[3]; female rats, 3 mg/kg oral
  suppression of corticosterone: 71%
[3]; female rats, 10 mg/kg oral
  suppression of corticosterone: 88%
[3]; female rats, oral
  dose with statistically significant suppression of corticosterone: ≥ 1 mg/kg
[3]; male and female rats, oral
  ACTH-stimulated corticosterone secretion: dose-dependently suppressed
[3]; male rats, 3 mg/kg oral
  suppression of corticosterone: 62%
[3]; male rats, 10 mg/kg oral
  suppression of corticosterone: 78%
[3]; male rats, oral
  dose with statistically significant suppression of corticosterone: ≥ 3 mg/kg
[3]; male rats, oral, 1 μg/kg ACTH-stimulated acute assay
  minimum effective dose: 3 mg/kg
[4]
  Cmax: 149 ng/mL
[4]; read-out: AUC up to the last measurable concentration (AUC0-t)
  AUC(0-t): 1400 ng·h/mL
[5]; 15 mg/kg/day
  suppression of plasma corticosterone: 73%
[5]; 30 mg/kg/day
  suppression of plasma corticosterone: 88%
[5]; 100 mg/kg/day vs vehicle
  increase in ACTH levels: 2.4 fold
[5]; 100 mg/kg/day
  suppression of plasma corticosterone: 92%
[5]; [7]
  body weight: no significant effect
  tumor volume: no significant effect
Sodium channel (site 2)
  inhibition/activity: > 70%
MCSR
  IC50: > 1000 nM
[6]; 24 and 48 hours after single oral 3 or 30 mg/kg
  ACTH-stimulated corticosterone: returned to normal, vehicle levels
[6]; 1 hour post-oral administration, 3 mg/kg
  suppression of ACTH-stimulated corticosterone: 44%
[6]; 1 hour post-oral administration, 30 mg/kg
  suppression of ACTH-stimulated corticosterone: 88%
[6]; 4 hours post-oral administration, 3 mg/kg
  suppression of ACTH-stimulated corticosterone: 36%
[6]; 4 hours post-oral administration, 30 mg/kg
  suppression of ACTH-stimulated corticosterone: 84%
5-HT1B receptor
  selectivity for hMC2R over 5-HT1B: > 2200 fold
5-HT1B receptor; agonist mode, no signal up to 3000 nM
  agonistic activity: no agonistic activity
5-HT1B receptor; antagonist mode, read-out: antagonistic activity IC50
  IC50: ~750 nM
MC3R
  IC50: > 1000 nM
MC1R
  IC50: > 10 µM
MC4R
  IC50: > 10 µM

— patent publication US12280046B2, “Melanocortin subtype-2 receptor (MC2R) antagonist for the treatment of disease” (Crinetics Pharmaceuticals, Inc., priority 2021, dated 2025)
